Laboratory results from patent US20140158116A1, “INHIBITING TRPA1 FOR THE TREATMENT OF ASTHMA” (Cubist Pharmaceuticals, Inc., priority 2012, published 2014).
Read-outs that look alike come from different tables or passages of the source.

Legend:
[1] = test system: formalin-induced pain behavior; experiment: Formalin-induced pain behavior in vivo rodent model; design: species or system rat; details: for # of Flinches: Table 3c, vehicle 120
Text: The data shown in Tables 3a, 3b, and 3c and FIG. 2 were obtained by administering a pharmaceutical composition comprising the compound of Formula (Ia) to rodents in the formalin-induced pain duration at various doses according to Example 5. Specifically, the data in Tables 3a, 3b, and 3c and FIG. 2 were obtained by intraperitoneal (i.p.) administration of compositions containing different concentrations of the compound of Formula (Ia), a comparator composition containing recited amounts of the comparator compound (e.g., 150 mg/kg of the comparator compound of Formula (II) in Table 3a) and a control composition containing the vehicle (e.g., without the compound of Formula (Ia) or a comparator compound).
The compound of Formula (Ia) and the comparator compounds of Formula (II) and Formula (III) were tested in the formalin-induced pain test reported by Dubuisson et al., Pain 1977 December; 4(2):161-74 (incorporated herein by reference in its entirety). Dubuisson et al. (1977) describe a method for assessing pain and analgesia in rats and cats. Briefly, dilute formalin (50 μL of 3% formalin) is injected into the plantar surface of the hind paw. […] The individual responsible for counting the pain behaviors in a particular study is blinded to the treatment groups.
Rats were treated with the HCl salt of Compound (Ia) at various doses (3, 10, 30, and 50 mg/kg, IP) or with the vehicle (IP).

hTRPA1 [2] = target: T1, hTRPA1 (Homo sapiens, UniProt O75762); experiment: hTrpA1 IC50 measured in 1% RSA (rat serum albumin); assay type: cell-based
T1 sequence (O75762 whole entry): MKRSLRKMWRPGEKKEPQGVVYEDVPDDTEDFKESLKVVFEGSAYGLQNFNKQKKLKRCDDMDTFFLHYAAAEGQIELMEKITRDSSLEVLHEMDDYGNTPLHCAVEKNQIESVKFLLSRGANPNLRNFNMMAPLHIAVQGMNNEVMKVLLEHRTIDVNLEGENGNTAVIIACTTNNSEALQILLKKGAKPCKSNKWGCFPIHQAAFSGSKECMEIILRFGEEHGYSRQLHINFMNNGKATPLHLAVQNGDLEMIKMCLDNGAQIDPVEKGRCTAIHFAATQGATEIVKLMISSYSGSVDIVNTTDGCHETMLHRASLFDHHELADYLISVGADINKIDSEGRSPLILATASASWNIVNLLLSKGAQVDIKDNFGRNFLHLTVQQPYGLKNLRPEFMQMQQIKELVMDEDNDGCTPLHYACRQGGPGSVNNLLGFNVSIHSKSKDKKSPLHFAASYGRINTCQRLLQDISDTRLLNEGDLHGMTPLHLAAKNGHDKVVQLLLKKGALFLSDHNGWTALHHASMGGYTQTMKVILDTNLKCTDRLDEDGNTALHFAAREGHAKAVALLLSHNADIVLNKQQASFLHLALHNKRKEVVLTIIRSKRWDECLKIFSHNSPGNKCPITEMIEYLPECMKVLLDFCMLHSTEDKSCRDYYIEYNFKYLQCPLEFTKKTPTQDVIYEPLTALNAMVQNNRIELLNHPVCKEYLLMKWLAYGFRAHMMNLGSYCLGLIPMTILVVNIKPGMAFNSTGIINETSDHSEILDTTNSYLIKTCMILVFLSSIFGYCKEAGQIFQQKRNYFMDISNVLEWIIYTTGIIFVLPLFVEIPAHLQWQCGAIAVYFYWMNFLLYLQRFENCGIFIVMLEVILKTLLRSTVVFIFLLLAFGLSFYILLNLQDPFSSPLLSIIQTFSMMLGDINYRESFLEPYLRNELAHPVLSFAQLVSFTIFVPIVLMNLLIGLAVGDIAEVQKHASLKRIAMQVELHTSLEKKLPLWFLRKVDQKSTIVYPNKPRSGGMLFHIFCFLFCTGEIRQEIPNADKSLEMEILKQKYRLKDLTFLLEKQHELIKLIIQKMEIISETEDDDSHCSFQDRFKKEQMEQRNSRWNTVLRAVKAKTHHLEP

hTRPA1 [3] = target: T1, hTRPA1; experiment: Whole-cell patch clamp block of inward current through hTRPA1; assay type: cell-based
Method: (§1) Data for TRPA1 inhibition and the selectivity of TRPA1 inhibition was obtained by this method for the compound of Formula (Ia) and included in Table 1 and Table 2. All currents were recorded in whole-cell configuration using EPC-9 and EPC-10 amplifiers and Patchmaster software (HEKA). […] The standard pipette solution consisted of 140 mM CsAsp, 10 mM EGTA, 10 mM HEPES, 2.27 mM MgCl2, 1.91 mM CaCl2, 4 mM MgATP, and 0.1-0.3 mM Na2GTP, with pH adjusted to 7.2 with CsOH. In addition, a solution containing 145 mM CsCl, 10 mM HEPES, 10 mM EGTA and 1 mM MgCl2 (pH 7.2 adjusted with CsOH) can be used. The standard bath solution contained 150 mM NaCl, 10 mM HEPES, 10 mM glucose, 4.5 mM KCl, 1 mM EGTA, 3 mM MgCl2, with pH adjusted to 7.4 with NaOH. In some instances, 2 mM CaCl2 was added in place of EGTA and the concentration of MgCl2 was reduced to 1 mM.
(§2) Data were collected either by continuous recordings at −60 mV or by applying voltage ramps from a holding potential of 0 mV every 4 s. Continuous recordings were collected at 400 Hz and digitally filtered off-line at 10 Hz for presentation. Voltage ramps were applied from −100 mV to 100 mV over the course of 400 ms, and data were collected at 10 kHz and filtered at 2.9 kHz. Inward and outward currents were analyzed from the ramps at −80 and 80 mV, respectively. Liquid junction potential correction was not used.
(§3) Solutions were switched using a gravity-fed continuous focal perfusion system. To achieve rapid temperature changes, two temperature control and perfusion systems were employed simultaneously. For temperatures ≧22° C., a Warner Instruments bipolar temperature controller (TC-344B) and inline heater (SHM-8) were used. […] Temperatures were confirmed using a thermistor (Warner Instruments, TA-29), with temperatures at the recorded cell estimated to be within +/−2° C. of those reported.
IC50 of compounds was estimated by testing each compound at 5 micromolar and 500 nanomolar. […] IC50 for compounds between 500 nanomolar and 5 micromolar was similarly estimated. Compounds blocking 50% or more at 500 nanomolar are retested at multiple concentrations, and the % block at each is fitted by standard equations to determine IC50 accurately using a 5-6 point concentration/response experiment.

[4] = test system: CFA-induced cold allodynia; experiment: Complete Freund's Adjuvant (CFA) cold allodynia rodent pain model; assay type: in vivo; details: 150 mg/kg; vehicle 19.8
Method: The compound of Formula (Ia) is also active in rodent models of pain in vivo induced by cold allodynia following chronic Complete Freund's Adjuvant-induced inflammation, as described in Example 6. […] The compound of Formula (Ia), the comparator compound of Formula (II) and ketoprofen were tested by the CFA-induced pain test method reported in del Camino et al., J. Neurosci., 30(45):15165-15174, incorporated herein by reference in its entirety. Briefly, the hind paw was sensitized to cold temperature (allodynic), by administering 0.1 mL of Complete Freund's Adjuvant (CFA) to the left hind paw. 2-3 days later, the time taken for the animal to lift its CFA-injected paw was recorded compared to its un-injected normal right hind paw. […] To avoid tissue damage the maximum cut-off time was 5 minutes. Animals that were allodynic (average PWL to the first three pain behaviors <150 seconds for the CFA-injected hind paw: ˜≧50% difference between the normal and CFA-injected paw) were included in the study and subsequently randomized across treatment groups. The following day, the animals were dosed under blinded conditions. Following the 1-2 hour pre-treatment time, the post-dose PWL readings were again taken. The efficacy of the drug treatment was assessed by comparing the PWL in the drug treatment animals to those animals that received the vehicle.

[5] = Oral bioavailability pharmacokinetic study; assay type: in vivo; details: rat, plasma, PO versus IV
Method: The potency and pharmacokinetic (PK) properties of (a) the compound of Formula (Ia); and (b) comparator compound of Formula (III) were evaluated. Bioavailability was measured as well. A pharmacokinetic study was performed to obtain a plasma drug concentration vs time plot for the drug after both intravenous (IV) and oral (PO) administration. The absolute bioavailability is the dose-corrected area under curve (AUC) non-intravenous divided by AUC intravenous. The formula for calculating F for a drug administered by the oral route (PO) is given below.
The bioavailability was calculated using the equation shown below:
% F=AUC PO×Dose IV/AUC IV×Dose PO

dTRPA1 = dTRPA1 (Canis lupus familiaris, UniProt A0A8I3Q1Q7); experiment: Whole-cell patch clamp block of inward current through dTRPA1; assay type: cell-based, Dog; details: class symbol; read-out: Potency (IC50) Dog
Sequence of dTRPA1 (A0A8I3Q1Q7 1-1118): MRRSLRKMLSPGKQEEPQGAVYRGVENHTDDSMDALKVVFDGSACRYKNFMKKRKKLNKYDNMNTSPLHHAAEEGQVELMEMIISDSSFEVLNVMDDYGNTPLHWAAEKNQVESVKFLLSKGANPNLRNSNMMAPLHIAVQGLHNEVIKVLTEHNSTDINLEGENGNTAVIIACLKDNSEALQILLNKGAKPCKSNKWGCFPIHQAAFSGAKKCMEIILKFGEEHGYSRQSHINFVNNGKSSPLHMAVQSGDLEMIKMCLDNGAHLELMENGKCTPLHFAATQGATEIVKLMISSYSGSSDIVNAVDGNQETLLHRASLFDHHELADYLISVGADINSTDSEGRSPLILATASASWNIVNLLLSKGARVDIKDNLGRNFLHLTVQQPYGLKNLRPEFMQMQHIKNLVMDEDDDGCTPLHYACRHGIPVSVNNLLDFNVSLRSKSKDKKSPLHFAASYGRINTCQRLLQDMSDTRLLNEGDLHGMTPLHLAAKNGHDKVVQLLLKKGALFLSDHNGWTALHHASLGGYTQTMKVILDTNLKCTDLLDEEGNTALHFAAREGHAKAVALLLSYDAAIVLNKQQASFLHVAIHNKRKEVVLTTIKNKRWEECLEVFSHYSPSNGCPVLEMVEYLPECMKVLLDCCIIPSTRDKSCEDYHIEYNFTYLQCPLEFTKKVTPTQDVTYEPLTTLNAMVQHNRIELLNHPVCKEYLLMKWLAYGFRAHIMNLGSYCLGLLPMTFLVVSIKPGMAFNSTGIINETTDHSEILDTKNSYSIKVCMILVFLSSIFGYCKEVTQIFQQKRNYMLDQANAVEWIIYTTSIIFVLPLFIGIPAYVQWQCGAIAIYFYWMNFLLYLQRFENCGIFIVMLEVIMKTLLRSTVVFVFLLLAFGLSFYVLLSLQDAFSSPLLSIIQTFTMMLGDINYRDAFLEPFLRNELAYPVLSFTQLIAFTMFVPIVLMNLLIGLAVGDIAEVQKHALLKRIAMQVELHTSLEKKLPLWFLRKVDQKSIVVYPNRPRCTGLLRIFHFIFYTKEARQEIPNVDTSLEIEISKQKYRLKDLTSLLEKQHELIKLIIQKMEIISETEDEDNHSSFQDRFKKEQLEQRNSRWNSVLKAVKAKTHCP
Method: as §1, §2, §3
(§4) IC50 of compounds was estimated by testing each compound at 5 micromolar and 500 nanomolar. […] IC50 for compounds between 500 nanomolar and 5 micromolar was similarly estimated. […]

[6] = 7-day repeat dose i.p. screening toxicity study in rats; assay type: in vivo, rat; details: rats; 50 mg/kg/day i.p. for 7 consecutive days
Method: The compound of Formula (Ia) was evaluated in a 7-day repeat dose screening toxicity study in female rats. In order to maximize systemic exposure, rats were administered compound of Formula (Ia) i.p. at 50 mg/kg/day for 7 consecutive days, to obtain the results shown in FIG. 6. Clinical chemistry parameters were evaluated on Days 3 and 8. Histopathology was performed on select organs including the liver, kidney, spleen, and lung.

rTRPA1 = rTRPA1 (Rattus norvegicus, UniProt Q6RI86); experiment: Whole-cell patch clamp block of inward current through rTRPA1; assay type: cell-based; details: class symbol; read-out: Potency (IC50) Rat
Sequence of rTRPA1 (Q6RI86 whole entry): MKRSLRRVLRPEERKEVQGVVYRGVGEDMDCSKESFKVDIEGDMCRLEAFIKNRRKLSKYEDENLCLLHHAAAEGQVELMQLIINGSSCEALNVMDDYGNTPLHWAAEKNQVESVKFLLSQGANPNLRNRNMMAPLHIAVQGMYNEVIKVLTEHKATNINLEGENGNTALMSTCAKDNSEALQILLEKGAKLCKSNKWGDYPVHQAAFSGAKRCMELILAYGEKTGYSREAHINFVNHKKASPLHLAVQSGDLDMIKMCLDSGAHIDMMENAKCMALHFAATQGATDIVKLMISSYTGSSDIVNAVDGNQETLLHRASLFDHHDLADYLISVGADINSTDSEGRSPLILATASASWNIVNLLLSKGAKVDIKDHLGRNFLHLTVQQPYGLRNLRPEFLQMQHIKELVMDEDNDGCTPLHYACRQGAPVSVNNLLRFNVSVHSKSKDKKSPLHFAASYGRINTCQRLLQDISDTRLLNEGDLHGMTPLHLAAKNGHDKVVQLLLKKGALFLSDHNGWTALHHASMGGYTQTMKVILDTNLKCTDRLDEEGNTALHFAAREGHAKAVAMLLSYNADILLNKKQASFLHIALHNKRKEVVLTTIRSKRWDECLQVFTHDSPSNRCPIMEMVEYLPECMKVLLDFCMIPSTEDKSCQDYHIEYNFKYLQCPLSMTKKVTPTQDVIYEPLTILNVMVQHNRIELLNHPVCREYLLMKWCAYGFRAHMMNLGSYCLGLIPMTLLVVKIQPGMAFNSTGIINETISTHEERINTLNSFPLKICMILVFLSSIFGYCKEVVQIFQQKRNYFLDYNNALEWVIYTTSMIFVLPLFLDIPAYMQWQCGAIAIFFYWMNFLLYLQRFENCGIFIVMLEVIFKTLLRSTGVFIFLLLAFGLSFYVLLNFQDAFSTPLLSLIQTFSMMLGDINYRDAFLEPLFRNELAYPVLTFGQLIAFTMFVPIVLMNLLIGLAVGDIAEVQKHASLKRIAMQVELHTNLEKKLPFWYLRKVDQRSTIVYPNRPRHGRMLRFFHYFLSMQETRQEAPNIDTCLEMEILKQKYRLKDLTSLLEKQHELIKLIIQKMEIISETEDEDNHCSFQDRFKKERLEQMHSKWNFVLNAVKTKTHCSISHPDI
Method: as §1, §2, §3, §4

[7] = Human plasma protein binding by equilibrium dialysis; assay type: in vitro ADME; details: percentage bound
Method: The amount of compound in buffer (free fraction) and the amount of compound associated with the plasma fraction is determined by equilibrium dialysis; the amount of compound bound is expressed as a percentage. (Banker et al., Journal of Pharmaceutical Sciences (2003) 92(5): 967-74.)

[8] = test system: serum biomarkers of hepatotoxicity (ALT, AST, ALP, GGT); experiment: Hepatotoxicity serum biomarker study in dogs, oral dose; assay type: in vivo, dog; details: for ALT level elevation: single PO dose of 50 mg/kg
Method: The compound of Formula (Ia) was orally dosed to […] at dose levels of 5, 15 or 50 mg/kg using 30% Sulfobutylether β-cyclodextrin as the vehicle for assessment of safety as measured via serum chemistry biomarkers of hepatotoxicity or bile duct injury FIG. 5A, showing measurements of alanine aminotranferease [ALT], aspartate aminotranferease [AST], alkaline phosphatase [ALP] and gamma-glutamyl transferase [GGT] in the dogs at each dose level (each bar represents a measurement from 1 dog in the study). […] For example, the ALT levels were elevated up to about 60-fold in male dogs and up to about 130-fold in female beagle dogs following a single PO dose of 50 mg/kg.

[9] = hTRPA1, Human, current activation 10 micromolar AITC, whole cell patch, read-out: IC50 Inward current

With `NCC1(CC(=O)O)CCCCC1` [Gabapentin] the “# of Flinches” value ([1]; reference, dose not given) was 75.

Work on `C[C@@H]1CCCN1c1ncc(-c2cccc(NC(=O)Cn3cnc4c3c(=O)n(C)c(=O)n4C)n2)cn1` [Formula (Ib)] yielded an IC50 (hTRPA1 [2]) of 15200 nM and an IC50 (hTRPA1 [3]; [9]) of 77 nM.

With `CC(C)c1ccc(NC(=O)Cn2cnc3c2c(=O)n(C)c(=O)n3C)cc1` [Formula (II)] the “Change in Paw Withdrawal Latency” value [4] was 142.2, the “# of Flinches” value ([1]; 30 mg/kg) was 88 and the “# of Flinches” value ([1]; 100 mg/kg) was 62. For the same compound, the “Duration of Pain Behavior” value ([1]; 150 mg/kg, Table 3a, vehicle 88.6) was 40.0 s and the “# of Flinches” value ([1]; 300 mg/kg) was 43.

With `C[C@H]1CCCN1c1ccc(-c2csc(NC(=O)Cn3cnc4c3c(=O)n(C)c(=O)n4C)n2)cc1F` [Formula (III), reference compound] the bioavailability ([5]; oral, fed rats, read-out: Bioavailability (Rat) Fed) was 1 to 25%, the bioavailability ([5]; po, fasted rats, read-out: Bioavailability (Rat) Fasted) was 25 to 50% and the bioavailability ([5]; po, fed rats, read-out: Bioavailability (Rat) Fed) was 1 to 25%. For the same compound, the IC50 (dTRPA1) was < 25 nM, the “effect on serum biomarkers of hepatotoxicity” value [6] was “did elevate serum biomarkers of hepatotoxicity as compared to Formula (Ia)” and the IC50 (rTRPA1) was 50 to 100 nM. For the same compound, the fraction unbound [7] was < 0.01, the “Duration of Pain Behavior” value ([1]; 50 mg/kg, Table 3b, vehicle 77.2) was 44.3 s and the IC50 (hTRPA1 [3]; [9]) was < 25 nM. For the same compound, the IC50 (hTRPA1 [3]; hTRPA1, class symbol, read-out: Potency (IC50) Human) was < 25 nM, the “effect on serum biomarkers of hepatotoxicity” value ([8]; dogs, 50 mg/kg PO) was “did elevate serum biomarkers of hepatotoxicity” and the ALT level elevation ([8]; female beagle dogs) was “up to 130 fold”. The ALT level elevation ([8]; male dogs) was “up to 60 fold”.
